Laboratory results from patent US12110278B2, “Selective JAK2 pseudokinase ligands and methods of use” (YALE UNIVERSITY, priority 2020, dated 2024).

biological target: JAK2 JH2 (Homo sapiens (Human), UniProt O60674); experiment: Competitive fluorescence polarization (FP) assay, JAK2 JH2; conditions: read-out: Binding Affinity for JAK2 JH2 (Kd) from the FP Assay; wild-type JH2, FP, pH 8.0; mean ± SEM
Sequence (O60674 536-812 W659A/W777A/F794H): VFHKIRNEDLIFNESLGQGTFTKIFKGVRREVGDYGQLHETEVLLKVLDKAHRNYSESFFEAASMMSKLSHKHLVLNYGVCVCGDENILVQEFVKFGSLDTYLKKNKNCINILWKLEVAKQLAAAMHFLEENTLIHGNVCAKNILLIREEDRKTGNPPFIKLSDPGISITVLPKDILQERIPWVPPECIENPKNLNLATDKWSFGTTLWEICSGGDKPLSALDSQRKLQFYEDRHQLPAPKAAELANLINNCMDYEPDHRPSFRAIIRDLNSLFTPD

Row | Kd [µM] | Compound
1 | 0.439 ± 0.064 | Nc1nc(Nc2ccc(S(N)(=O)=O)cc2)nn1C(=O)Nc1ccc(-c2ccc(C(=O)O)o2)cc1 [Compound 13, 5-(4-(5-amino-3((4-sulfamoylphenyl)amino)-1H-1,2,4-triazole-1-carboxamido)phenyl)furan-2-carboxylic acid]
2 | 4 | N#Cc1ccc(Nc2nc(N)n(C(=O)Nc3cccc(OCC(=O)O)c3)n2)cc1 [Compound 11, 2-(3-(5-amino-3((4-cyanophenyl)amino)-1H-1,2,4-triazole-1-carboxamido)phenoxy)acetic acid]
3 | 7 ± 0.1 | Nc1nc(Nc2ccc(S(N)(=O)=O)cc2)nn1C(=O)Nc1ccc(-c2nnc(C(=O)O)o2)cc1 [Compound 14, 5-(4-(5-amino-3((4-sulfamoylphenyl)amino)-1H-1,2,4-triazole-1-carboxamido)phenyl)-1,3,4-oxadiazole-2-carboxylic acid]
4 | 16.7 | Nc1nc(Nc2ccc(S(N)(=O)=O)cc2)nn1Cc1c(F)cccc1F [Compound 2, 4-((5-amino-1-(2,6-difluorobenzyl)-1H-1,2,4-triazol-3-yl)amino)benzenesulfonamide]
5 | 47.8 ± 9.2 | CN(C(=O)n1nc(Nc2ccc(S(N)(=O)=O)cc2)nc1N)c1ccccc1 [Compound 5, 5-amino-N-methyl-N-phenyl-3-((4-sulfamoylphenyl)amino)-1H-1,2,4-triazole-1-carboxamide]
6 | 4.7 | Nc1nc(Nc2ccc(S(N)(=O)=O)cc2)nn1C(=O)Nc1ccccc1 [Compound 4]
7 | 12.3 | Nc1nc(Nc2ccc(S(N)(=O)=O)cc2)nn1C(=O)Nc1cccnc1 [Compound 7, 5-amino-N-(pyridin-3-yl)-3((4-sulfamoylphenyl)amino)-1H-1,2,4-triazole-1-carboxamide]
8 | 30.5 ± 3.6 | Nc1nc(Nc2ccc(S(N)(=O)=O)cc2)nn1C(=O)Nc1ccccn1 [Compound 6]

biological target: JAK2 JH2 V617F mutant (Homo sapiens (Human), UniProt O60674, V617F); experiment: not given; conditions: cited from earlier work
Sequence (O60674 545-809 V617F): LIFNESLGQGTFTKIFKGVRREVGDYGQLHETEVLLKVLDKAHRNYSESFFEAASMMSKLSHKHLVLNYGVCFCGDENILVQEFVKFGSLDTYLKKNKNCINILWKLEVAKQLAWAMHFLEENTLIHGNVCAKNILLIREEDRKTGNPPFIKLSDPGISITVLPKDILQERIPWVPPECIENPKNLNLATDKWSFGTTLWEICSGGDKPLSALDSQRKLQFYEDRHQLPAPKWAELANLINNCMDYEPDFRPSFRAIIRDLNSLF

Row | Compound | Kd [µM]
9 | Nc1ncnc2c1ncn2[C@@H]1O[C@H](COP(=O)(O)OP(=O)(O)OP(=O)(O)O)[C@@H](O)[C@H]1O [ATP] | 1.3

biological target: WT JAK2 JH2 (Homo sapiens (Human), UniProt O60674); experiment: not given; conditions: read-out: Binding constant with WT JAK2 JH2; cited from earlier work
Sequence (O60674 545-809): as the sequence (O60674 545-809 V617F) above, with F73V counted along it

Row | Compound | Kd [µM]
10 | Nc1ncnc2c1ncn2[C@@H]1O[C@H](COP(=O)(O)OP(=O)(O)OP(=O)(O)O)[C@@H](O)[C@H]1O [ATP] | 1.3

system: not given; experiment: not given; conditions: cited from earlier work

Row | Compound | octanol/water log P
11 | c1cscn1 [thiazole] | 0.44
12 | c1cocn1 [oxazole] | 0.12
13 | c1ccsc1 [thiophene] | 1.81
14 | c1ccoc1 [furan] | 1.34
